{"source": "patent US11613547B2", "about": "(priority 2019, dated 2023)", "key": {"mDOR [1]": {"molecular_target": "T1, mDOR (Mus musculus, UniProt P32300)", "T1 construct": "expressed in transfected cells", "experiment": "Radioligand competition binding ([125I]IBNtxA), CHO membranes, mDOR"}, "mMOR": {"molecular_target": "T2, mMOR (Mus musculus, UniProt P42866)", "T2 construct": "expressed in transfected cells", "experiment": "[35S]GTPγS functional assay, mMOR", "type": "biochemical"}, "mKOR": {"molecular_target": "T3, mKOR (Mus musculus, UniProt P33534)", "T3 construct": "expressed in transfected cells", "experiment": "[35S]GTPγS functional assay, mKOR", "type": "biochemical"}, "mDOR [2]": {"molecular_target": "T1, mDOR", "experiment": "[35S]GTPγS functional assay, mDOR", "type": "biochemical"}, "hMOR [3]": {"molecular_target": "T4, hMOR (Homo sapiens, UniProt P35372)", "T4 construct": "expressed in transfected cells; host or cells: HEK 293T (ATCC CRL-11268), transient", "experiment": "cell-based", "type": "cell-based"}, "hMOR [4]": {"molecular_target": "T4, hMOR", "experiment": "Tango β-arrestin recruitment assay, hMOR", "type": "cell-based", "settings": "Tango"}, "hKOR [5]": {"molecular_target": "T5, hKOR (Homo sapiens, UniProt P41145)", "T5 construct": "expressed in transfected cells; host or cells: HEK 293T (ATCC CRL-11268), transient", "experiment": "cAMP inhibition assay (GloSensor, HEK 293T), hKOR", "type": "cell-based"}, "hKOR [6]": {"molecular_target": "T5, hKOR", "experiment": "Tango β-arrestin recruitment assay, hKOR", "type": "cell-based"}, "[7]": {"molecular_target": "T6, mouse mu opioid receptor (mMOR) (Mus musculus, UniProt P42866)", "T6 construct": "expressed in transfected cells; host or cells: HEK-293T, transient (PEI), with BRET sensor cDNAs", "experiment": "cell-based", "type": "cell-based"}, "[8]": {"molecular_target": "T6, mouse mu opioid receptor (mMOR)", "experiment": "cell-based", "type": "cell-based", "remark": "listed apart in the source"}, "[9]": {"molecular_target": "T7, rat kappa opioid receptor (rKOR) (Rattus norvegicus, UniProt P34975)", "T7 construct": "expressed in transfected cells; host or cells: HEK-293T, transient (PEI), with BRET sensor cDNAs", "experiment": "BRET assay, G-protein activation, rKOR", "type": "cell-based"}, "[10]": {"molecular_target": "T7, rat kappa opioid receptor (rKOR)", "experiment": "BRET assay, arrestin recruitment, rKOR", "type": "cell-based", "settings": "BRET"}, "[11]": {"molecular_target": "T8, mouse delta opioid receptor (mDOR) (Mus musculus, UniProt P32300)", "T8 construct": "expressed in transfected cells; host or cells: HEK-293T, transient (PEI), with BRET sensor cDNAs", "experiment": "BRET assay, G-protein activation, mDOR", "type": "cell-based"}, "C57BL/6J mice [12]": {"system": "C57BL/6J mice", "experiment": "55° C. warm-water tail-withdrawal assay", "type": "in vivo, mouse", "settings": "icv, 55° C. tail withdrawal", "protocol": "(§1) Tail-withdrawal assay The 55° C. warm-water tail-withdrawal assay was conducted in mice as a measure of acute thermal antinociception as described previously (Reilley et al., 2010). Briefly, each mouse was tested for baseline tail-withdrawal latency prior to drug administration. Following drug administration, the latency for each mouse to withdraw the tail was measured every 10 minutes until latency returned to the baseline value. A maximum response time of 15 seconds was utilized to prevent tissue damage. […] Data are reported as percent antinociception, calculated by the equation: % antinociception=100×[(test latency−baseline latency)/(15−baseline latency)]. This was utilized to account for innate variability between mice. Compounds were administered either, […] (IP) or intracerebroventricular (icv) and the analgesic action of compounds was assessed at the peak effect as described previously (Haley and McCormick, 1957). In brief, mice were anesthetized using isoflurane. A small incision was made, and the drug (2 μl/mouse) was injected (using a 10 μL Hamilton syringe fitted to a 27-gauge needle) into the right lateral ventricle at the following coordinates: 2 mm caudal to bregma, 2 mm lateral to sagittal suture, and 2 mm in depth. Mice were tested for analgesia at the peak effect post injection."}, "[13]": {"system": "MOR KO, KOR KO, DOR KO mice", "experiment": "Tail-withdrawal antinociception in opioid receptor knock out mice", "type": "in vivo, mouse", "settings": "30 nmol icv, relative to WT", "protocol": "as §1"}, "330 non-olfactory GPCRs": {"system": "330 non-olfactory GPCRs", "experiment": "PRESTO-Tango GPCRome β-arrestin recruitment screen", "type": "cell-based", "settings": "3 μM", "protocol": "Assessment of off-target activity of MP1207 using PRESTO-Tango GPCR-ome To identify potential off-target activity of MP1207, the National Institutes of Mental Health Psychoactive Drug Screen Program were used. MP1207 was first tested for activity against 330 non-olfactory GPCRs using the PRESTO-Tango GPCRome screening β-arrestin recruitment assay at 3 μM MP1207. The activity at each receptor was measured in quadruplicate.\nScreening of compounds was accomplished using previously described methods with several modifications (www.ncbi.nlm.nih.gov/pmc/articles/PMC4424118/). First, HTLA cells were plated in DMEM with 2% dialyzed FBS and 10 U/mL penicillin-streptomycin. Next, the cells were transfected using an in-plate PEI method (www.ncbi.nlm.nih.gov/pmc/articles/PMC4012321/). PRESTO-Tango receptor DNAs were resuspended in OptiMEM and hybridized with PEI prior to dilution and distribution into 384-well plates and subsequent addition to cells. After overnight incubation, drugs diluted in DMEM with 1% dialyzed FBS were added to cells without replacement of the medium. The remaining steps of the PRESTO-Tango protocol were followed as previously described."}, "C57 mice": {"system": "C57 mice", "experiment": "Respiratory rate (CLAMS)"}, "C57/B6 mice": {"system": "C57/B6 mice", "experiment": "Locomotor effect (CLAMS)", "settings": "30 or 100 nmol icv"}, "hDOR [14]": {"molecular_target": "T9, hDOR (Homo sapiens, UniProt P41143)", "T9 sequence (P41143 whole entry)": "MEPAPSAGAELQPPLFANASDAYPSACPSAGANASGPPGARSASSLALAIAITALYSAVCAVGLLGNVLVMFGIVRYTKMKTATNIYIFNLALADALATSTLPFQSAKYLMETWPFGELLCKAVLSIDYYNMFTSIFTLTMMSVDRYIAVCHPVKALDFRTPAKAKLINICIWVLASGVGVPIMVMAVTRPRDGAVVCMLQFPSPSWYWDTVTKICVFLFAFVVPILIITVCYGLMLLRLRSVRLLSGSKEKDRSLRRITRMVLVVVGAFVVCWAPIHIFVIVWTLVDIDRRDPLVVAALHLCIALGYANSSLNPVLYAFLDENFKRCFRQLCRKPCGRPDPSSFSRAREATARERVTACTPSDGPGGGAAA", "experiment": "cAMP inhibition assay, hDOR", "type": "cell-based", "parameters": "expressed in transfected cells"}, "Y312W-hKOR [15]": {"molecular_target": "T10, Y312W-hKOR (Homo sapiens, UniProt P41145, Y312W)", "T10 sequence (P41145 whole entry Y312W)": "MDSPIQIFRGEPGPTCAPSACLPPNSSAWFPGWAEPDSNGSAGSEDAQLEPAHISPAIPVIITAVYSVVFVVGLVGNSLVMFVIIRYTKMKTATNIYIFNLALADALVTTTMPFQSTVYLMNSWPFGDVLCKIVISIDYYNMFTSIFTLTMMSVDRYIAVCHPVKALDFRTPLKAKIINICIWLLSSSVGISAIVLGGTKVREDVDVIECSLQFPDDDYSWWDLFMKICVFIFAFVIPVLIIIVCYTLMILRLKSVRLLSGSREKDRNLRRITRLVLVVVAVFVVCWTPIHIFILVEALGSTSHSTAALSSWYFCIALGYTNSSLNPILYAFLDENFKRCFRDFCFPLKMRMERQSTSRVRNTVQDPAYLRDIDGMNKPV", "experiment": "Tango-arrestin recruitment assay, Y312W-hKOR mutant", "type": "cell-based", "parameters": "expressed in transfected cells", "settings": "Tango, compared with wild-type KOR"}, "C57BL/6J mice [16]": {"system": "C57BL/6J mice", "experiment": "Conditioned place preference and aversion", "settings": "MP1207 100 nmol icv, morphine 10 mg/kg IP, U50,488h 30 mg/kg IP"}, "hDOR [17]": {"molecular_target": "T9, hDOR", "experiment": "Tango β-arrestin recruitment assay, hDOR", "type": "cell-based", "parameters": "expressed in transfected cells; host or cells: HTLA cells expressing TEV fused-beta-Arrestin2"}, "Y312W-hKOR [18]": {"molecular_target": "T10, Y312W-hKOR", "experiment": "cAMP inhibition assay, Y312W-hKOR mutant", "type": "cell-based", "parameters": "expressed in transfected cells; host or cells: HEK 293T (inferred from the general cAMP method)"}}, "note": "Where “and” joins values, the source holds several entries; their conditions need not be identical. Equal values may be shown once. Entries after “also recorded” stand apart in the source; their conditions may differ.", "data": [{"smiles": "NCc1cccc(C(=O)NC2CCC3C4Cc5ccc(O)c6c5C3(CCN4CC3CC3)C2O6)c1", "note": "[MP1207, 3-(Aminomethyl)-N-((7R,726S)-3-(cyclopropylmethyl)-9-hydroxy-2,3,4,4a,5,6,7,7a-octahydro-1H-4,12-methanobenzofuro[3,2-e]isoquinolin-7-yl)benzamide]", "values": [{"measurement": "selectivity of MOR and KOR over DOR in the binding assays", "setting": "mDOR [1]", "result": "> 40", "unit": "fold"}, {"measurement": "Emax", "setting": "mMOR", "result": "41 ± 1", "unit": "%"}, {"measurement": "Emax", "setting": "mKOR", "result": "39.3 ± 1.3", "unit": "%"}, {"measurement": "Emax", "setting": "mDOR [2]", "result": "10 to 15", "unit": "%"}, {"measurement": "efficacy at mDOR", "setting": "mDOR [2]; [35S]GTPγS", "result": "only weak efficacy"}, {"measurement": "EC50", "setting": "hMOR [3]", "result": 0.0339, "unit": "nM"}, {"measurement": "Emax", "setting": "hMOR [3]; HEK-293T, read-out: Gi Emax hMOR", "result": "33 ± 1.4", "unit": "%"}, {"measurement": "arrestin recruitment at hMOR", "setting": "hMOR [4]", "result": "no recruitment of arrestin was seen; also recorded: no arrestin recruitment was observed"}, {"measurement": "Emax", "setting": "hKOR [5]; HEK-293T, read-out: Gi Emax hKOR", "result": "90 ± 1.7", "unit": "%"}, {"measurement": "Bias factor toward G protein, hKOR", "setting": "hKOR [5]; cAMP inhibition vs Tango, against U50,488H as control", "result": 8}, {"measurement": "Emax", "setting": "hKOR [6]", "result": "37 ± 2", "unit": "%"}, {"measurement": "EC50", "setting": "hKOR [6]; Tango, WT-hKOR", "result": 3.97, "unit": "nM"}, {"measurement": "EC50", "setting": "[7]", "result": 3.61, "unit": "nM"}, {"measurement": "Emax", "setting": "[7]; read-out: Gi Emax mMOR", "result": "42 ± 2.6", "unit": "%"}, {"measurement": "arrestin recruitment at mMOR", "setting": "[8]", "result": "no recruitment of βarrestin-2; also recorded: no arrestin recruitment was observed"}, {"measurement": "EC50", "setting": "[9]; BRET, read-out: Gi EC50 rKOR", "result": 1.13, "unit": "nM"}, {"measurement": "Emax", "setting": "[9]; read-out: Gi Emax rKOR", "result": "32 ± 2.3", "unit": "%"}, {"measurement": "arrestin recruitment at rKOR", "setting": "[10]", "result": "no recruitment of βarrestin-2; also recorded: no arrestin recruitment was observed"}, {"measurement": "EC50", "setting": "[11]; mDOR, BRET", "result": 116, "unit": "nM"}, {"measurement": "Emax", "setting": "[11]; read-out: G-Protein activation Emax % ± SEM", "result": "52 ± 2.3", "unit": "%"}, {"measurement": "antinociceptive ED50 (95% CI)", "setting": "C57BL/6J mice [12]", "result": "6.1 (4.1-8.9) nmol and 6.1 nmol"}, {"measurement": "antinociception in DOR KO mice", "setting": "[13]", "result": "remained intact"}, {"measurement": "antinociception in KOR KO mice", "setting": "[13]", "result": "significantly attenuated"}, {"measurement": "antinociception in MOR KO mice", "setting": "[13]", "result": "significantly attenuated"}, {"measurement": "selectivity for opioid receptors in GPCRome screen", "setting": "330 non-olfactory GPCRs; agonism in arrestin recruitment TANGO assay", "result": "reasonable selectivity for opioid receptors over 330 GPCRs; also recorded: selectivity for opioid receptors over non-opioid targets"}, {"measurement": "increase in signal over basal at opioid receptors", "setting": "330 non-olfactory GPCRs; predominantly at KOR and DOR, much less at MOR", "result": 2, "unit": "fold over basal"}, {"measurement": "respiratory rate", "setting": "C57 mice; 30 nmol icv", "result": "stimulated respiration; also recorded: an increase in the respiratory rate"}, {"measurement": "respiratory rate", "setting": "C57 mice; 100 nmol icv", "result": "still stimulated respiration; also recorded: slight right shift of effect"}, {"measurement": "locomotor effect", "setting": "C57/B6 mice", "result": "stimulated locomotor activity; also recorded: increase in the forward locomotory effect"}, {"measurement": "EC50", "setting": "hDOR [14]; hDOR", "result": 11.4, "unit": "nM"}, {"measurement": "Emax", "setting": "hDOR [14]; read-out: cAMP inhibition Emax % ± SEM", "result": "38 ± 2", "unit": "%"}, {"measurement": "arrestin recruitment at Y312W-hKOR", "setting": "Y312W-hKOR [15]", "result": "further reduction of arrestin recruitment; also recorded: reduced arrestin measurement"}, {"measurement": "conditioned place preference or aversion (CPP/CPA)", "setting": "C57BL/6J mice [16]", "result": "failed to show either rewarding or aversive behavior; also recorded: did not display GPP seen with morphine or CPA behavior seen with U50, 488h"}, {"measurement": "EC50", "setting": "hDOR [17]; hDOR, Tango", "result": 64.1, "unit": "nM"}, {"measurement": "Emax", "setting": "hDOR [17]; read-out: Arrestin recruitment Emax % ± SEM", "result": "34 ± 3.7", "unit": "%"}, {"measurement": "EC50", "setting": "Y312W-hKOR [18]; cAMP inhibition, read-out: Gi EC50 Y312W-hKOR", "result": 0.16, "unit": "nM"}, {"measurement": "Emax", "setting": "Y312W-hKOR [18]; read-out: Gi Emax Y312W-hKOR", "result": "95 ± 1.8", "unit": "%"}]}]}
